Data from article PMC8429549, “Glycosylation reduces the glycan-independent immunomodulatory effect of recombinant Orysata lectin in Drosophila S2 cells” (Scientific Reports, 2021).

Biological target: T1, BOry (recombinant Orysata from E. coli) (Oryza sativa, UniProt Q0JMY8)
T1 construct: gene SALT; pColdII, N-terminal poly-His tag kept; E. coli BL21; non-glycosylated
T1 sequence (Q0JMY8 1-145): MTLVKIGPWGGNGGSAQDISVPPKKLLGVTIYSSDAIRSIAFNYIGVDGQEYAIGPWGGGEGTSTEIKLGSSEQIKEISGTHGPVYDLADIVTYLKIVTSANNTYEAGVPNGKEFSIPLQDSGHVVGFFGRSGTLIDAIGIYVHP
Test: competition: FITC-BOry on blot of glycosylated YOry
Assay type: binding
Settings: 20 mM mannose in PBS preincubated 20 min; FITC-labelled lectin; competitive with the N-glycan of YOry

In the case of OC[C@H]1OC(O)[C@@H](O)[C@@H](O)[C@@H]1O (stereo partly shown) [mannose], the “competition: FITC-BOry on blot of glycosylated YOry” value is reported as “Preincubation of the FITC-BOry with mannose, abolished the binding to the glycosylated YOry”.
